Several values for one entry are separate records, joined by “and”; a condition that tells them apart may be missing. Equal values may be shown once.
What was measured:
[1] = Kinetics of light-induced ligand photo-dissociation monitored by UV/visible spectroscopy; format: physicochemical; conditions: for rate of photodecomposition / ligand loss: pH 7.5 in water
Text: The rate of ligand loss from [Ru(bpy)2(66′bpy(OH)2)]^2+ to give the active anti-cancer agent ([Ru(bpy)2(solvent)2]^2+) can depend greatly on pH and the solvent composition. At pH 5 in aqueous solution, [Ru(bpy)2(66′bpy(OH)2)]^2+ undergoes blue light induced ligand loss which was monitored by UV/visible spectroscopy over one hour (graph (a) in FIG. 8). At this pH, which is below pKa1 and pKa2, the dihydroxybipyridine ligand should be in its native (protonated) state and should correspond to weaker Ru—N bonds (cf. deprotonated ligand), due to a less electron rich ligand as corroborated by crystallographic and computational results described herein. […] This A→B process is consistent with the clean isosbestic point observed, and furthermore, a first or second order process can be ruled out due to non-linear (curved) plots for these rate laws (see supplementary materials).
At this pH, which is above pKa1 and pKa2, the 6,6′-dihydroxybipyridine ligand should be fully deprotonated, which corresponds to stronger Ru—N bonds. Slight fluctuations in the absorbance values can be attributed to noise, and at this pH the rate of photodecomposition appears to be zero. Thus, the deprotonated, more strongly donating ligand appears to block photodecomposition. Thus, this establishes the framework for how a metal-based prodrug can be selectively activated in cancer cells, which have a lower pH as compared to normal cells.
Studies in acetonitrile were done to monitor the process that gave rise to ([Ru(bpy)2(CH3CN)2]^2+) and investigate the influence of solvent on the rates. […] In contrast, upon irradiation with blue light (450 nm), [Ru(bpy)2(66′bpy(OH)2)]^2+ in acetonitrile undergoes decomposition to give [Ru(bpy)2(CH3CN)2)]^2+ and the free ligand, 66′bpy(OH)2 (λmax=343 nm, 421 nm). These products have been prepared independently and their spectra are consistent with those shown for the final result of photodecomposition (graph (c) in FIG. 8). The observed zero order rate constant, kobs=2.6×10^−7 M/s, was determined by fitting an A→B process at 457 nm. The large changes in light absorption show a clean isosbestic point at λ=422 nm and is consistent with an A→B process. Furthermore, the light induced loss of a ligand is consistent with a zero order process that is independent of concentration. The observed rate constant, kobs=2.6(1)×10^−7 M/s, reflects that photodecomposition is nearly complete (87%) in 5 minutes, and it is entirely complete within 20 minutes, graph (c) in FIG. 8. Thus, the reaction proceeds 15 times more quickly in acetonitrile vs. pH 5 aqueous media. This could be attributed to decreased back reaction in acetonitrile, or enhanced stability of the product ligand in acetonitrile since it is better solvated. The product complex is analogous to the likely product of photodecomposition in vivo, namely [Ru(bpy)2(H2O)2)]^2+.

[2] = system: human cervical carcinoma (HeLa) cells; experiment: MTT cell viability assay in HeLa cells with or without 450 nm irradiation; format: cell-based; conditions: for HeLa cell viability, no irradiation: absence of light; for IC50: read-out: IC50 (error)
Method: For cell culture, human cervical carcinoma (HeLa) cells were obtained from the ATCC. The cells were cultured at 37° C. in a 5% CO2, humidified atmosphere in Dulbecco's Modified Eagle Medium (DMEM) supplemented with 10% fetal bovine serum, 100 U/mL penicillin, and 100 μg/ml streptomycin (Invitrogen). Assays were accomplished by seeding cells at a density of 5,000 cells/well in a 96-well plate and incubated at 37° C. overnight. Media was exchanged and then cells were treated with either 100 μM [Ru(bpy)2(66′bpy(OH)2)]^2+, [Ru(bpy)2(44′bpy(OH)2)]^2+, or [Ru(bpy)3]^2+ for 48 h. The medium containing compounds was discarded, cells were washed, and fresh Hank's Balanced Salt Solution was added. In the dark, cells were irradiated using a 450 nm light emitting diode (LED) flashlight positioned 4 cm from the plate for 1 h. The salt solution was exchanged with media and cells were allowed to grow for 24 h. Media containing 20 μL of 3-(4,5-dimethylthiazol-2-yl)-[…] bromide (MTT) (5 mg/mL) was added to each well and incubated for an additional 3 h. The medium was removed. After adding 200 μL of DMSO to each well, the optical densities at 570 nm were determined The p-values were calculated from triplicate data sets using KaleidaGraph software.
Upon irradiation the [Ru(bpy)2(66′bpy(OH)2)]^2+ prodrug can be converted into a cytotoxic agent while in a cell. For example, HeLa cells were plated, incubated with [Ru(bpy)2(66′bpy(OH)2)]^2+, irradiated, and an MTT cell viability assay was used to assess cellular viability. […] The average viability dropped to 93+/−6%. The change is not statistically significant with p greater than 0.05. Similar results were obtained when cells were not treated with the agent and only irradiated for one hour. The viability dropped to 88+/−9%. […] When [Ru(bpy)2(66′bpy(OH)2)]^2+ was incubated with HeLa cells and irradiated the viability dropped to 47+/−12%. This is a statistically significant drop with p less than 0.004 and 0.02 for no ruthenium-complex and no irradiation respectively. Further experiments changing the concentration of [Ru(bpy)2(66′bpy(OH)2)]^2+ in HeLa cells under irradiation can allow for measurement of an inhibitory concentration (IC50). The IC50 for anti-cancer activity is given in Table 1, which are consistent with the data in FIG. 3.

[3] = pH titration by UV/visible absorbance in aqueous buffers (pKa); format: physicochemical; conditions: aqueous buffers pH 1 to 13, 25° C.
Method: ^1H-NMR spectra were collected on a Varian 300 MHz Fourier Transform spectrometer in deuterated acetonitrile (CD3CN) Infrared spectra were obtained on a Perkin Elmer Spectrum One FT-IR with Universal ATR sampling accessory. UV-visible absorption spectra were collected on a Scinco S-3100 diode-array spectrophotometer at a resolution of 1 nm. Luminescence data was collected on a Horiba Jobin Yvon Fluoromax 3. pH measurements were performed using a VWR SympHony pH meter, utilizing a three point calibration at pH=4.0, 7.0, and 10.0.
UV/visible absorbance data was collected for [Ru(bpy)2(66′bpy(OH)2)]^2+ in aqueous buffers ranging from pH=1 to pH=13, FIG. 6. The deprotonated form of [Ru(bpy)2(66′bpy(OH)2)]^2+ is red shifted compared to the protonated form of the complex. The pH titration data can show two distinct events that yielded a pKa1=5.26 and pKa2=7.27.

[4] = 100 μM complex for 48 h, untreated non-irradiated cells = 100%
[5] = HeLa cells under irradiation (450 nm, 1 h), MTT

Row | Compound | photo-dissociation of ligand ([1]; blue light) | HeLa cell viability, no irradiation [2, 4] | IC50 (error) [2, 5] | IC50 [2, 5] [µM] | rate in acetonitrile vs. pH 5 aqueous media ([1]; 450 nm blue light) [times] | time to entirely complete photodecomposition ([1]; acetonitrile, 450 nm blue light) [min] | extent of photodecomposition ([1]; acetonitrile, 450 nm blue light, 5 minutes) [%] | kobs, zero order rate constant of photodecomposition ([1]; acetonitrile, 450 nm blue light, followed at 457 nm) | kobs, zero order rate constant of blue light induced ligand loss ([1]; pH 5 aqueous solution, 450 nm blue light, initial rate 0-300 s, followed at 461 nm) | ligand dissociation ([1]; pH 5 in water, blue light) | rate of photodecomposition / ligand loss ([1]; 450 nm blue light) | rate of photodecomposition / ligand loss ([1]; 450 nm blue light, listed as [Ru(bpy)2(66′bpy(OH)2)2)]^2+) | stability in acetonitrile solution ([1]; protected from light or exposed to 720 nm red light) | pKa1 [3] | pKa2 [3] | HeLa cell viability, with irradiation ([2]; 100 μM complex for 48 h, then 450 nm irradiation for 1 h, untreated non-irradiated cells = 100%)
1 | F[P-](F)(F)(F)(F)F.F[P-](F)(F)(F)(F)F.Oc1ccnc(-c2cc(O)ccn2)c1.[Ru+2].c1ccc(-c2ccccn2)nc1.c1ccc(-c2ccccn2)nc1 [[Ru(bpy)2(44′bpy(OH)2)]^2+, [Ru(bpy)2(44′bpy(OH)2)][PF6]2] | no photo-dissociation | 91+/−4% | no significant effects | > 100 |  |  |  |  |  |  |  |  |  |  |  | 
2 | F[P-](F)(F)(F)(F)F.F[P-](F)(F)(F)(F)F.O.Oc1cccc(-c2cccc(O)n2)n1.[Ru+2].c1ccc(-c2ccccn2)nc1.c1ccc(-c2ccccn2)nc1 [[Ru(bpy)2(66′bpy(OH)2)]^2+, [Ru(bpy)2(66′bpy(OH)2)][PF6]2.H2O] |  |  |  | 88 | 15 | ≤ 20 | 87 | 2.6(1)×10^−7 M/s | 1.7(2)×10^−8 M/s | readily dissociates | no measurable photodecomposition | zero | stable | 5.26 | 7.27 | 47+/−12% and 47%
3 | [Cl][Ru][Cl].c1ccc(-c2ccccn2)nc1.c1ccc(-c2ccccn2)nc1.c1ccc(-c2ccccn2)nc1 [[Ru(bpy)3]^2+, [Ru(bpy)3][Cl]2] |  | 91+/−4% |  | 152 |  |  |  |  |  |  |  |  |  |  |  | 

— patent US20160101177A1, “pH AND LIGHT ACTIVATED ANTI-CANCER DRUGS” (The Board of Trustees of the University of Alabama, priority 2014, published 2016)
